From US12534432B2, “Trisulfide compound” (Kyowa Pharma Chemical Co., Ltd., priority 2020, dated 2026)

Assay: hydrogen sulfide-trapping ability by methylene blue spectrophotometry
Conditions: room temperature
Protocol: The presence or absence of a hydrogen sulfide-trapping ability (hydrogen sulfide elimination effect) of pantethine trisulfide (PANSSS) was evaluated through methylene blue spectrophotometry.
Sodium sulfide nonahydrate (Na2S·9H2O) was dissolved in purified water to prepare a 50 μmol/L sodium sulfide nonahydrate solution, which was used as a H2S standard solution.
p-Aminodimethylaniline was dissolved in 10 N sulfuric acid to prepare 1 mmol/L DPDA solution.
Iron (III) chloride hexahydrate was dissolved in 1% sulfuric acid to prepare a 3 mmol/L FeCl3·6H2O solution.
A 0.5 mmol/L pantethine trisulfide solution was prepared by dissolving pantethine trisulfide in 25 mmol/L phosphate buffer (PBS, pH 7).
10 mL of the H2S standard solution (0.5 μmol, standard) was added to a stoppered test tube and stirred. 1 mL (0.5 μmol, 1 eq.) of PBS (blank) or the pantethine trisulfide solution was added to this solution and stirred for a predetermined time (0, 5, 15 or 30 minutes). After stirring, 1 mL (1 μmol, 2 eq.) of the DPDA solution and 1 mL (3 μmol, 6 eq.) of the FeCl3·6H2O solution were added thereto and further stirred, and the absorbance (wavelength: 668 nm) of the solution was measured after the absorbance of the solution stopped changing (that is, after color development due to methylene blue production was completed). This test was conducted under the conditions of room temperature.

Q: With `CC(C)(CO)[C@@H](O)C(=O)NCCC(=O)NCCSSSCCNC(=O)CCNC(=O)[C@H](O)C(C)(C)CO` [pantethine trisulfide] as the compound, how does the “absorbance (wavelength: 668 nm) compared to the blank” value (0.5 μmol H2S, 1 eq. pantethine trisulfide in PBS pH 7, stirring 0, 5, 15 or 30 minutes) read?
A: The value was “the longer the contact time (reaction time) between H2S and pantethine trisulfide, the lower the absorbance compared to the blank”.

Q: And the “hydrogen sulfide-trapping ability (hydrogen sulfide elimination effect)” value (methylene blue spectrophotometry, 1 eq. to H2S)?
A: The value was “had a hydrogen sulfide-trapping ability”.
